Experimental findings from US20240002375A1, “2-(INDAZOL-5-YL)-6-(PIPERIDIN-4-YL)-1,7-NAPHTHYRIDINE DERIVATIVES AND RELATED COMPOUNDS AS MODULATORS FOR SPLICING NUCLEIC ACIDS AND FOR THE TRE” (REMIX THERAPEUTICS INC., priority 2020, published 2024) are described below.

Holding throughout (format): cell-based
In assay [1] the test system is HTT mRNA. The assay is described as follows: Splicing assay (RT-qPCR) of HTT mRNA alternative junction (AJ) and canonical junction (CJ). The procedure, abridged: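 HTT splice switching read as formation of an alternative-exon junction (AJ) versus the canonical junction (CJ) by one-step RT-qPCR on cell lysates, with GAPDH/GUSB housekeeping normalisation in K562 and PPIA in A673. Compounds: 11-point 3-fold series up to 10 uM, ≤0.25% DMSO, 24 h at 37 °C.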
(In qPCR the cycle at which signal appears reflects the starting amount.)

For assay [2], the system named is HTT CJ mRNA. In words: Gene panel canonical junction qPCR splicing assay, HTT. The settings on record: Table 4, read-out: HTT IC50 (decrease in CJ mRNA levels). The procedure, abridged:
(§1)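 A673 or K562 cells treated with compound; canonical-junction mRNA measured by RT-qPCR with junction-spanning primer/probe sets, normalized to GAPDH, GUSB or PPIA and DMSO (2^−ΔΔCt). IC50 for CJ decrease from 4-parameter logistic fit of percentage response.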

In assay [3] the test system is SMN2 CJ mRNA. The assay is described as follows: Gene panel canonical junction qPCR splicing assay, SMN2. The following applies: Table 4, read-out: SMN2 IC50 (decrease in CJ mRNA levels). The procedure, abridged:
as §1

The subject of assay [4] is Target C CJ mRNA. The assay is described as follows: Gene panel canonical junction qPCR splicing assay, Target C. The following applies: Table 4, read-out: Target C IC50 (decrease in CJ mRNA levels). The procedure, abridged:
as §1

The mark [5] stands for this setting: decrease in CJ mRNA, A673 or K562 cells, 24 hours, read-out: HTT CJ IC50.
Where [6] appears, read: increase in AJ mRNA, A673 or K562 cells, 24 hours, read-out: HTT AJ AC50.
Where [7] appears, read: 24 h, read-out: HTT AJ AC50 (nM).
The mark [8] stands for this setting: 24 h, read-out: HTT CJ IC50 (nM).

Like-named read-outs stand apart in the source and are kept apart here.

Consider `Cn1cc2cc(-c3ccc4nc(N5CC[C@H](NC(C)(C)C)C5)ccc4n3)c(O)cc2n1` [Compound 154, 5-{6-[(3S)-3-(tert-butylamino)pyrrolidin-1-yl]-1,5-naphthyridin-2-yl}-2-methylindazol-6-ol], for which the IC50 in assay [1] (setting [5]), in assay [2], in assay [3] and in assay [4] was under 100 nM throughout. For the same compound, the AC50 in assay [1] (setting [6]) was under 100 nM.
Consider `Cn1cc2cc(-c3ccc4nc(N5CC[C@H](NC6CCC6)C5)ccc4n3)c(O)cc2n1` [Compound 156, 5-{6-[(3S)-3-(cyclobutylamino)pyrrolidin-1-yl]-1,5-naphthyridin-2-yl}-2-methylindazol-6-ol], for which, in assay [1] (setting [7]), the AC50 was under 100 nM. Besides, the IC50 was under 100 nM in assay [1] (setting [8]), under 100 nM in assay [2], under 100 nM in assay [3] and 100 to 1000 nM in assay [4].
Take `Cn1cc2cc(-c3ccc4nc(N5CC[C@@H](NC6CCC6)C5)ccc4n3)c(O)cc2n1` [Compound 157]: the IC50 was under 100 nM in assay [1] (setting [5]), under 100 nM in assay [2], under 100 nM in assay [3] and 100 to 1000 nM in assay [4]. Besides, the AC50 in assay [1] (setting [6]) was under 100 nM.
Consider `Cn1cc2cc(-c3ccc4nc(N5CCC(NC6CC6)C5)ccc4n3)c(O)cc2n1` (centres unmarked) [Compound 158], for which the IC50 in assay [1] (setting [5]), in assay [2], in assay [3] and in assay [4] was under 100 nM each time. In assay [1] (setting [6]), the AC50 was under 100 nM.
For the compound `Cn1cc2cc(-c3ccc4nc(OC5CNC5)ccc4n3)c(O)cc2n1` [Compound 159], the IC50 was 1000 to 10000 nM in assay [1] (setting [5]), 1000 to 10000 nM in assay [2], 100 to 1000 nM in assay [3] and 1000 to 10000 nM in assay [4]. For the same compound, the AC50 in assay [1] (setting [6]) was 1000 to 10000 nM.
With `Cn1cc2cc(-c3ccc4nc(N5CC[C@]67CCN[C@H]6CC[C@H]57)ccc4n3)c(O)cc2n1` [Compound 160, 5-{6-[(1R,55,85)-4,9-diazatricyclo[6.3.0.0^{1,5}]undecan-4-yl]-1,5-naphthyridin-2-yl}-2-methylindazol-6-ol], the IC50 in assay [1] (setting [5]) was 100 to 1000 nM; in assay [2] it was 100 to 1000 nM; in assay [3] it was under 100 nM; in assay [4] it was 1000 to 10000 nM. The AC50 in assay [1] (setting [6]) is 100 to 1000 nM.
Consider `COc1cc2ccncc2cc1-c1ccc2nc(N3CCC(NC(C)(C)C)C3)ccc2n1` (centres unmarked) [Compound 161, N-tert-butyl-1-[6-(6-methoxyisoquinolin-7-yl)-1,5-naphthyridin-2-yl]pyrrolidin-3-amine], for which the IC50 in assay [1] (setting [5]) is over 10000 nM; in assay [2], over 10000 nM; in assay [3] it was 1000 to 10000 nM; in assay [4], over 10000 nM. The AC50 in assay [1] (setting [6]) was over 10000 nM.
As for `Cn1cc2cc(-c3ccc4nc(N5CCC56CCNC6)ccc4n3)c(O)cc2n1` (centres unmarked) [Compound 162], the IC50 in assay [1] (setting [5]) was over 10000 nM; in assay [2] it was over 10000 nM; in assay [3], 1000 to 10000 nM; in assay [4], over 10000 nM. Also, the AC50 in assay [1] (setting [6]) is over 10000 nM.
`Cn1cc2cc(-c3ccc4nc(N5CCC56CCCNC6)ccc4n3)c(O)cc2n1` (centres unmarked) [Compound 163]: the IC50 in assay [1] (setting [5]) was over 10000 nM; in assay [2] it was over 10000 nM; in assay [3], 100 to 1000 nM; in assay [4] it was over 10000 nM. The AC50 in assay [1] (setting [6]) was over 10000 nM.
As to `Cn1cc2cc(-c3ccc4nc(N5CCC56CCNCC6)ccc4n3)c(O)cc2n1` [Compound 164], the IC50 in assay [1] (setting [5]), in assay [2], in assay [3] and in assay [4] was 100 to 1000 nM throughout. Besides, the half-maximal activity concentration (AC50) in assay [1] (setting [6]) is 100 to 1000 nM.
Turning to `Cn1cc2cc(-c3ccc4nc(N5CC(NC(C)(C)C)C5)ccc4n3)c(O)cc2n1` [Compound 165], the IC50 in assay [1] (setting [5]), in assay [2], in assay [3] and in assay [4] was 1000 to 10000 nM throughout. Besides, in assay [1] (setting [6]), the AC50 is 1000 to 10000 nM.
Regarding `CC(C)(C)NC1CCN(c2ccc3nc(-c4cc5cnccc5cc4O)ccc3n2)C1` (centres unmarked) [Compound 166, 7-{6-[3-(tert-butylamino)pyrrolidin-1-yl]-1,5-naphthyridin-2-yl}isoquinolin-6-ol], the IC50 in assay [1] (setting [5]), in assay [2], in assay [3] and in assay [4] was over 10000 nM throughout. The AC50 in assay [1] (setting [6]) was over 10000 nM.
With `Cn1cnc2cc(-c3ccc4nc(N5CCC(NC(C)(C)C)C5)ccc4n3)c(O)cc2c1=O` (centres unmarked) [Compound 167, 7-{6-[3-(tert-butylamino)pyrrolidin-1-yl]-1,5-naphthyridin-2-yl}-6-hydroxy-3-methylquinazolin-4-one], the IC50 in assay [1] (setting [5]), in assay [2], in assay [3] and in assay [4] was over 10000 nM in each case. Further, the AC50 in assay [1] (setting [6]) was over 10000 nM.
For `COc1cc2c(=O)n(C)cnc2cc1-c1ccc2nc(N3CCC(NC(C)(C)C)C3)ccc2n1` (centres unmarked) [Compound 168, 7-{6-[3-(tert-butylamino)pyrrolidin-1-yl]-1,5-naphthyridin-2-yl}-6-methoxy-3-methylquinazolin-4-one], the IC50 in assay [1] (setting [5]), in assay [2], in assay [3] and in assay [4] was over 10000 nM in each case. Also, the AC50 in assay [1] (setting [6]) is over 10000 nM.
Consider `CN[C@H]1CCN(c2ccc3nc(-c4cc5cn(C)nc5cc4O)ccc3n2)C1` [Compound 170, 2-methyl-5-{6-[(3S)-3-(methylamino)pyrrolidin-1-yl]-1,5-naphthyridin-2-yl}indazol-6-ol], for which the IC50 was under 100 nM in assay [1] (setting [5]), under 100 nM in assay [2], under 100 nM in assay [3] and 100 to 1000 nM in assay [4]. Moreover, the AC50 in assay [1] (setting [6]) is 100 to 1000 nM.
As to `CC(C)N[C@H]1CCN(c2ccc3nc(-c4cc5cn(C)nc5cc4O)ccc3n2)C1` [Compound 171], the AC50 in assay [1] (setting [7]) is under 100 nM. The IC50 in assay [1] (setting [8]) was under 100 nM; in assay [2], under 100 nM; in assay [3], under 100 nM; in assay [4], 100 to 1000 nM.
Take `CN[C@@H]1CCN(c2ccc3nc(-c4cc5cn(C)nc5cc4O)ccc3n2)C1` [Compound 172]: the IC50 in assay [1] (setting [5]) was under 100 nM; in assay [2] it was under 100 nM; in assay [3], under 100 nM; in assay [4], 100 to 1000 nM. In assay [1] (setting [6]), the AC50 fell in the range of 100 to 1000 nM.
For the compound `CC(C)N[C@@H]1CCN(c2ccc3nc(-c4cc5cn(C)nc5cc4O)ccc3n2)C1` [Compound 173], the IC50 in assay [1] (setting [5]), in assay [2], in assay [3] and in assay [4] was under 100 nM throughout. The AC50 in assay [1] (setting [6]) is under 100 nM.
For the compound `Cc1cc(=O)c2cc(O)c(-c3ccc4nc(N5CCC(NC(C)(C)C)C5)ccc4n3)cc2o1` (centres unmarked) [Compound 174], the IC50 in assay [1] (setting [5]), in assay [2], in assay [3] and in assay [4] was over 10000 nM in each case. Moreover, the AC50 in assay [1] (setting [6]) was over 10000 nM.
Turning to `Cc1nc2cc(O)c(-c3ccc4nc(N5CCC(NC(C)(C)C)C5)ccc4n3)cc2o1` (centres unmarked) [Compound 175, 6-{6-[3-(tert-butylamino)pyrrolidin-1-yl]-1,5-naphthyridin-2-yl}-2-methyl-1,3-benzoxazol-5-ol], the IC50 in assay [1] (setting [5]), in assay [2], in assay [3] and in assay [4] was under 100 nM throughout. Moreover, the AC50 in assay [1] (setting [6]) was under 100 nM.
`COc1cc2nc(C)sc2cc1-c1ccc2nc(N3CCC(NC(C)(C)C)C3)ccc2n1` (centres unmarked) [Compound 176, N-tert-butyl-1-[6-(5-methoxy-2-methyl-1,3-benzothiazol-6-yl)-1,5-naphthyridin-2-yl]pyrrolidin-3-amine]: the IC50 in assay [1] (setting [5]), in assay [2], in assay [3] and in assay [4] was 1000 to 10000 nM in each case. For the same compound, the half-maximal activity concentration (AC50) in assay [1] (setting [6]) is 1000 to 10000 nM.
Consider `COc1cc2nc(C)oc2cc1-c1ccc2nc(N3CCC(NC(C)(C)C)C3)ccc2n1` (centres unmarked) [Compound 177, N-tert-butyl-1-[6-(5-methoxy-2-methyl-1,3-benzoxazol-6-yl)-1,5-naphthyridin-2-yl]pyrrolidin-3-amine], for which the IC50 in assay [1] (setting [5]), in assay [2], in assay [3] and in assay [4] was 1000 to 10000 nM in each case. The concentration at half-maximal activity (AC50) in assay [1] (setting [6]) is 1000 to 10000 nM.
Regarding `Cn1cc2cc(-c3ccc4nc(N5CCC6(CCN6)C5)ccc4n3)c(O)cc2n1` (centres unmarked) [Compound 178, 5-(6-{1,6-diazaspiro[3.4]octan-6-yl}-1,5-naphthyridin-2-yl)-2-methylindazol-6-ol], the half-maximal inhibitory concentration (IC50) was 100 to 1000 nM in assay [1] (setting [5]), 100 to 1000 nM in assay [2], under 100 nM in assay [3] and 1000 to 10000 nM in assay [4]. For the same compound, the AC50 in assay [1] (setting [6]) is 100 to 1000 nM.
`CCN[C@H]1CCN(c2ccc3nc(-c4cc5cn(C)nc5cc4O)ccc3n2)C1` [Compound 179]: the IC50 in assay [1] (setting [5]) is under 100 nM; in assay [2] it was under 100 nM; in assay [3] it was under 100 nM; in assay [4], 100 to 1000 nM. The AC50 in assay [1] (setting [6]) is under 100 nM.
As to `CCN[C@@H]1CCN(c2ccc3nc(-c4cc5cn(C)nc5cc4O)ccc3n2)C1` [Compound 180], the IC50 was under 100 nM in assay [1] (setting [5]), under 100 nM in assay [2], under 100 nM in assay [3] and 100 to 1000 nM in assay [4]. In assay [1] (setting [6]), the AC50 fell in the range of 100 to 1000 nM.

In general, IC50 refers to the point on the concentration scale where inhibition reaches its midpoint. In general, AC50 refers to the concentration at which the activity in the assay is half-maximal.
